Experimental data taken from patent US11053248B2, “[1,2,4]triazolo[1,5-a]pyrimidine compounds as PDE2 inhibitors” (Janssen Pharmaceutica NV, priority 2016, dated 2021).
pIC50: −log10 of the molar value. Like-named read-outs stand apart in the source and are kept apart here.

Tests used:
hPDE10A2 = hPDE10A2 (Homo sapiens, UniProt Q9Y233); assay: biochemical; conditions: for IC50: 60 nM cAMP substrate, read-out: hPDE10A2 pIC50 (converted); for Emax: read-out: hPDE10A2 Emax
Method: Rat recombinant PDE10A (rPDE10A2) was expressed in Sf9 cells using a recombinant rPDE10A baculovirus construct. Cells were harvested after 48 h of infection and the rPDE10A protein was purified by metal chelate chromatography on Ni-sepharose 6FF. Tested compounds were dissolved and diluted in 100% DMSO to a concentration 100 fold of the final concentration in the assay. Human recombinant PDE10A […] was expressed in Sf9 cells using a recombinant hPDE10A baculovirus that was made and amplified in house. Cells were harvested after 72 h of infection and the hPDE10A protein was purified by metal chelate chromatography on Ni-sepharose. Compound dilutions (0.4 μl) were added in 384 well plates to 20 μl of incubation buffer (50 mM Tris pH 7.8, 8.3 mM MgCl2, 1.7 mM EGTA). […] of rPDE10A or hPDE10A enzyme in incubation buffer was added and the reaction was started by addition of 10 μl substrate to a final concentration of 60 nM cAMP and 0.008 μCi ^3H-cAMP. The reaction was incubated for 60 minutes at room temperature. […] After sedimentation of the beads during 30 minutes the radioactivity was measured in a Perkin Elmer Topcount scintillation counter and results were expressed as cpm. For blanc values the enzyme was omitted from the reaction and replaced by incubation buffer. Control values were obtained by addition of a final concentration of 1% DMSO instead of compound.

PDE2A = biological target: T1, PDE2A (Rattus norvegicus, UniProt Q01062); assay: PDE2 occupancy by ex-vivo autoradiography with [3H]B-17a; type: in vivo; conditions: for receptor occupancy at 10 mg/kg / ED50: rat; for ED50: read-out: PDE occupancy ED50, route PO (oral), male Wistar rats, dose producing 50% occupancy
T1 construct: from tissue; host or cells: rat brain striatal sections (ex vivo)
T1 sequence (Q01062 1-928): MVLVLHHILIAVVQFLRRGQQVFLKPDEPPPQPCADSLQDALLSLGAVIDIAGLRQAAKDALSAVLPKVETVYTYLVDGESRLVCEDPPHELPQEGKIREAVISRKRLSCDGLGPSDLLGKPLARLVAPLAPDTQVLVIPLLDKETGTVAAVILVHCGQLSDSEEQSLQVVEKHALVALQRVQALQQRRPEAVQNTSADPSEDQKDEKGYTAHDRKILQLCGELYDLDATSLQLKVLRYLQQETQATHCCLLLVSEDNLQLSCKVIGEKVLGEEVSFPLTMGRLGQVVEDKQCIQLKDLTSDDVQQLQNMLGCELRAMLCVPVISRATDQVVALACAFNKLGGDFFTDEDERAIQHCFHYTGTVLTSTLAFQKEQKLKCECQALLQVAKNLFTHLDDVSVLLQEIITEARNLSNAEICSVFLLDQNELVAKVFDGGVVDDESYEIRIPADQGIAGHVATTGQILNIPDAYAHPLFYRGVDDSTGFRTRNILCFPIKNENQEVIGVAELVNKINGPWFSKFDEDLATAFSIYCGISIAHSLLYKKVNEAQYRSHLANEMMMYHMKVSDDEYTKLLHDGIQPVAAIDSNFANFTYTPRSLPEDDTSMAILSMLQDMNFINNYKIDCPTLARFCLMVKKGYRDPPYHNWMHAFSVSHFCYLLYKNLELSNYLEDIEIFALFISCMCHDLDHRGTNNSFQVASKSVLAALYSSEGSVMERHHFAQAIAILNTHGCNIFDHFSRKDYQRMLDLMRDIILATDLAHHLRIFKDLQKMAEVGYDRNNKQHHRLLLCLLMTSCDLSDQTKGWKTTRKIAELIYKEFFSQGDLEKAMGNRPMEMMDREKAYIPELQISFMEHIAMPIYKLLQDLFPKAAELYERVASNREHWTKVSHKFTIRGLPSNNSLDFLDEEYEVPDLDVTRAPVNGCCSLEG
Method: PDE2 Occupancy by Test Compounds Methods
Brains were immediately removed from the skull and rapidly frozen in dry-ice cooled 2-methylbutane (−40° C.).
After thawing, sections were dried under a cold stream of air and incubated for one minute with 30 nM [^3H]B-17a in Tris-HCl (50 mM, pH7.4) containing 0.3% BSA. Brain sections from drug-treated and vehicle-treated animals were incubated in parallel. […] After incubation, the excess of [^3H]B-17a was washed off in ice-cold buffer 2 times 10 minutes, followed by a quick dip in distilled water. The sections were then dried under a stream of cold air.
Brain sections were loaded in a β-imager (Biospace, Paris) for 4 h and radioactivity emerging from delineated brain area was quantified using the Beta vision program (Biospace, Paris). Specific binding was determined as the difference between total binding in the striatum and non-specific binding in the cerebellum. Percentage receptor occupancy of the drug administered to the animal corresponded to 100% minus the percentage receptor labeled in the treated animal. For the determination of ED50-values, the percentage of receptor occupancy was plotted against dose and the sigmoidal log dose-effect curve of best fit was calculated by non-linear regression analysis, using the GraphPad Prism program.

hPDE2A = biological target: T2, hPDE2A (Homo sapiens, UniProt O00408); assay: In vitro assay PDE2A (SPA, 3H-cGMP); type: biochemical; conditions: for Emax: read-out: hPDE2A Emax
T2 construct: made in house; host or cells: Sf9 insect cells (baculovirus)
T2 sequence (O00408 whole entry): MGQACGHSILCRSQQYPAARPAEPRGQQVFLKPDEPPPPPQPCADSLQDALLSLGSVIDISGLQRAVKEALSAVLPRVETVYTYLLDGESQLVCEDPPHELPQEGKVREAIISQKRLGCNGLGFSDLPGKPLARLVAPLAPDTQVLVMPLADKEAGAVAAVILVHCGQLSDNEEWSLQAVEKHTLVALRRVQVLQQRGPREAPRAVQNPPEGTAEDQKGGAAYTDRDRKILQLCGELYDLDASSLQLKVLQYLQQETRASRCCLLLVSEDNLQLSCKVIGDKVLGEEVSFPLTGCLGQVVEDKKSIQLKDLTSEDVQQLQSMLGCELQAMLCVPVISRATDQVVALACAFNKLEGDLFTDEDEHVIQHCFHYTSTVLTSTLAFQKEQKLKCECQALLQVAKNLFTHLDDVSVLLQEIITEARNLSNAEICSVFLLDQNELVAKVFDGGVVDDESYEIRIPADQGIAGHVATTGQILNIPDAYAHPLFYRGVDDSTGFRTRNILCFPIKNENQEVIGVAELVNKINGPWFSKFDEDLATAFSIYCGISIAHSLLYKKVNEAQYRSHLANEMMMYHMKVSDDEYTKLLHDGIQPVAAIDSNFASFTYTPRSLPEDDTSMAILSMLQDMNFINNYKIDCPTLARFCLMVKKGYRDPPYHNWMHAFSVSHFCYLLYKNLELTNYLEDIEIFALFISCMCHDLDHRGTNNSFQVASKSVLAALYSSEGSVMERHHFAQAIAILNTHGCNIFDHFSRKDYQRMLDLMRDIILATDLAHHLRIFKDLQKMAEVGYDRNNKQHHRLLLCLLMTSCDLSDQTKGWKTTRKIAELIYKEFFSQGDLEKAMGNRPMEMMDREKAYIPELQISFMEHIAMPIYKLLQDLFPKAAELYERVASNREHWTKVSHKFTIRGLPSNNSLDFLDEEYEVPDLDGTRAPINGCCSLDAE
Method: Human recombinant PDE2A (hPDE2A) was expressed in Sf9 cells using a recombinant rPDE10A baculovirus construct. Cells were harvested after 48 h of infection and the hPDE2A protein was purified by metal chelate chromatography on Ni-sepharose 6FF. Tested compounds were dissolved and diluted in 100% DMSO to a concentration 100 fold of the final concentration in the assay. Compound dilutions (0.4 μl) were added in 384 well plates to 20 μl of incubation buffer (50 mM Tris pH 7.8, 8.3 mM MgCl2, 1.7 mM EGTA). 10 μl of hPDE2A enzyme in incubation buffer was added and the reaction was started by addition of 10 μl substrate to a final concentration of 10 μM cGMP and 0.01 μCi ^3H-cGMP. The reaction was incubated for 45 minutes at room temperature. […] After sedimentation of the beads during 30 minutes the radioactivity was measured in a Perkin Elmer Topcount scintillation counter and results were expressed as cpm. For blanc values the enzyme was omitted from the reaction and replaced by incubation buffer. Control values were obtained by addition of a final concentration of 1% DMSO instead of compound.

hPDE3B = assay: In vitro assay PDE3 (SPA, 3H-cAMP); type: biochemical, human; design: hPDE3B Emax: unit not given here; conditions: for hPDE3B pIC50: 0.4 μM cAMP substrate
[1] = po, read-out: PDE2 occupancy at 10 mg/kg, route PO (oral), 10 mg/kg, male Wistar rats, striatum, percentage occupancy
[2] = sc, read-out: PDE2 occupancy at 10 mg/kg, route SC (subcutaneous), 10 mg/kg, male Wistar rats, striatum, percentage occupancy
[3] = route SC (subcutaneous), 10 mg/kg, male Wistar rats, striatum, percentage occupancy, read-out: PDE2 occupancy at 10 mg/kg
[4] = po, read-out: PDE2 occupancy at 10 mg/kg

Chain of hPDE10A2 (Q9Y233 267-1055): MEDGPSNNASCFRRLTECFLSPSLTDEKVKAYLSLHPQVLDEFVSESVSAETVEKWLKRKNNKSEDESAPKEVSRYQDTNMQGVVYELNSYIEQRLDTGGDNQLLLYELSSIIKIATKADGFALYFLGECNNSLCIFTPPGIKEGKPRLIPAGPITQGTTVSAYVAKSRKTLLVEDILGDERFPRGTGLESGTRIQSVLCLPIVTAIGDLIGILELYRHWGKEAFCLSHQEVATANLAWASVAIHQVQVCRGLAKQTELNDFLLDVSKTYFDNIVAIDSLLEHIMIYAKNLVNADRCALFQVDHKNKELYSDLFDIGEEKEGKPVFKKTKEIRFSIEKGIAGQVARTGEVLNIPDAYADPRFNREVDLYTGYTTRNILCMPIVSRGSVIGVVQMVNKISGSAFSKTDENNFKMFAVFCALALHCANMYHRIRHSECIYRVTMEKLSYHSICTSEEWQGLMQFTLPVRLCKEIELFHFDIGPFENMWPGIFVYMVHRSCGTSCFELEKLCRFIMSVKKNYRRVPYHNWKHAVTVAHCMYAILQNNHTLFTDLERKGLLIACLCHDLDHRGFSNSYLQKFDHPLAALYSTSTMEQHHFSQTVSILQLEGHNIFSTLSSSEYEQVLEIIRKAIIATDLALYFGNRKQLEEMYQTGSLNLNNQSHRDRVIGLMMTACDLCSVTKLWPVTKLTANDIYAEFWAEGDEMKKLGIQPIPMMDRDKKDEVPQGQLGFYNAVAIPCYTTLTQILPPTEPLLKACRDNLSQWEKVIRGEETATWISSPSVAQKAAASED

Structure (SMILES) | IC50 (hPDE10A2) [nM] | Emax (hPDE10A2) [%] | receptor occupancy at 10 mg/kg (PDE2A; [1]) [%] | ED50 (PDE2A; po) [mg/kg] | PDE2 occupancy at 10 mg/kg (PDE2A; route PO (oral), 10 mg/kg, male Wistar rats, striatum, percentage occupancy) | pIC50 (hPDE2A) | Emax (hPDE2A) [%] | hPDE3B Emax (hPDE3B) | hPDE3B pIC50 (hPDE3B) | receptor occupancy at 10 mg/kg (PDE2A; [2]) [%] | receptor occupancy at 10 mg/kg (PDE2A; [3]) [%] | receptor occupancy at 10 mg/kg (PDE2A; [4]) [%] | receptor occupancy at 10 mg/kg (PDE2A; route PO (oral), 10 mg/kg, male Wistar rats, striatum, percentage occupancy, read-out: PDE2 occupancy at 10 mg/kg) [%]
Cc1cc([C@@H]2CN(c3nccc4ccc(Cl)cc34)CC[C@H]2C)n2ncnc2n1 [Compound 3] | 83.2 | 100 | 90 | 2.12 | 89 | 8.52 | 100 | 88 | 5.49 | – | – | – | –
COc1cccc2c(N3CC[C@@H](C)[C@H](c4cc(C(F)F)nc5ncnn45)C3)nccc12.Cl [Compound 10] | 490 | 100 | – | 20 | – | 7.89 | 99 | 84 | 5.53 | 53 | – | – | –
C[C@@H]1CCN(c2cc(N3CCOCC3)ccn2)C[C@H]1c1cc(C(F)F)nc2ncnn12 [Compound 27] | 2630 | 80 | – | – | – | 6.97 | 100 | 48 | 5.07 | – | 0 | – | –
C[C@@H]1CCN(c2ccc(C#N)cn2)C[C@H]1c1cc(C(F)F)nc2ncnn12 [Compound 35] | 1380 | 85 | – | – | – | 6.79 | 99 | 31 | <5 | – | – | 0 | –
C[C@@H]1CCN(c2cc(I)ccn2)C[C@H]1c1cc(C(F)F)nc2ncnn12 [Compound 16] | 224 | 99 | – | – | – | 7.74 | 100 | 95 | 6.19 | – | -14 | – | –
Cc1cc([C@@H]2CN(c3nccc4ccc(Br)cc34)CC[C@H]2C)n2ncnc2n1 [Compound 2] | 74.1 | 102 | 96 | 2.6 | – | 8.97 | 100 | 89 | 5.45 | – | – | – | –
C[C@@H]1CCN(c2nccc3ccccc23)C[C@H]1c1cc(C(F)F)nc2ncnn12 [Compound 7] | 617 | 98 | – | 29 | – | 7.97 | 101 | 69 | 5.22 | 81 | – | – | –
C[C@@H]1CCN(c2ccccn2)C[C@H]1c1cc(C(F)F)nc2ncnn12.Cl [Compound 32] | 1660 | 87 | – | – | – | 6.77 | 86 | 38 | <5 | – | – | 18 | –
C[C@@H]1CCN(c2ncnc3ccccc23)C[C@H]1c1cc(C(F)F)nc2ncnn12 [Compound 12] | 646 | 96 | – | – | – | 7.84 | 100 | 67 | 5.25 | – | – | 1 | –
C[C@@H]1CCN(c2cc(C#N)ccn2)C[C@H]1c1cc(C(F)F)nc2ncnn12 [Compound 22] | 1150 | 90 | – | – | – | 7.17 | 100 | 82 | 5.5 | – | – | – | 0
C[C@@H]1CCN(c2ncc(Cl)c3ccccc23)C[C@H]1c1cc(C(F)F)nc2ncnn12 [Compound 6] | 417 | 101 | 3 | – | – | 8.05 | 99 | 67 | 5.21 | – | – | – | –
C[C@@H]1CCN(c2ccnc3ccccc23)C[C@H]1c1cc(C(F)F)nc2ncnn12 [Compound 42] | 1230 | 91 | – | – | – | 7.69 | 99 | 70 | 5.27 | – | – | -8 | –
C[C@@H]1CCN(c2nccc3[nH]ccc23)C[C@H]1c1cc(C(F)F)nc2ncnn12 [Compound 9] | 708 | 92 | – | – | – | 7.90 | 101 | 60 | 5.13 | 36 | – | – | –
